Reference: patent US20220041597A1 (FORMA Therapeutics, Inc., priority 2018, published 2022)

Target: USP9X (Homo sapiens, UniProt Q93008)
Assay: Biochemical Assay for USP9X Inhibition (Ub-Rh110 fluorescence)
Details: Ub-Rh110 25 nM, 30 min preincubation
Protocol: Concentration and incubation times were optimized for the maximal signal-to-background while maintaining initial velocity conditions at a fixed substrate concentration (<<Km). […] To assay plates (pre-stamped with compound) was added 3 μL 2× Enzyme. The enzyme was preincubated for 30 minutes and then treated with 3 μL of 2× Substrate. […] The slope (best fit linear regression) of the five reads was used to normalize for inhibition. For all assays, data are reported as percent inhibition compared with control wells based on the following equation: […], wherein FLU is measured Fluorescence, AveLow is average Fluorescence of no enzyme control (n=64), and AveHigh is average Fluorescence of DMSO control (n=64). IC50 values are determined by curve fitting of the standard 4 parameter logistic fitting algorithm included in the Activity Base software package: IDBS XE Designer Model205. Data are fitted using the Levenburg Marquardt algorithm.

Chain of USP9X (Q93008 whole entry): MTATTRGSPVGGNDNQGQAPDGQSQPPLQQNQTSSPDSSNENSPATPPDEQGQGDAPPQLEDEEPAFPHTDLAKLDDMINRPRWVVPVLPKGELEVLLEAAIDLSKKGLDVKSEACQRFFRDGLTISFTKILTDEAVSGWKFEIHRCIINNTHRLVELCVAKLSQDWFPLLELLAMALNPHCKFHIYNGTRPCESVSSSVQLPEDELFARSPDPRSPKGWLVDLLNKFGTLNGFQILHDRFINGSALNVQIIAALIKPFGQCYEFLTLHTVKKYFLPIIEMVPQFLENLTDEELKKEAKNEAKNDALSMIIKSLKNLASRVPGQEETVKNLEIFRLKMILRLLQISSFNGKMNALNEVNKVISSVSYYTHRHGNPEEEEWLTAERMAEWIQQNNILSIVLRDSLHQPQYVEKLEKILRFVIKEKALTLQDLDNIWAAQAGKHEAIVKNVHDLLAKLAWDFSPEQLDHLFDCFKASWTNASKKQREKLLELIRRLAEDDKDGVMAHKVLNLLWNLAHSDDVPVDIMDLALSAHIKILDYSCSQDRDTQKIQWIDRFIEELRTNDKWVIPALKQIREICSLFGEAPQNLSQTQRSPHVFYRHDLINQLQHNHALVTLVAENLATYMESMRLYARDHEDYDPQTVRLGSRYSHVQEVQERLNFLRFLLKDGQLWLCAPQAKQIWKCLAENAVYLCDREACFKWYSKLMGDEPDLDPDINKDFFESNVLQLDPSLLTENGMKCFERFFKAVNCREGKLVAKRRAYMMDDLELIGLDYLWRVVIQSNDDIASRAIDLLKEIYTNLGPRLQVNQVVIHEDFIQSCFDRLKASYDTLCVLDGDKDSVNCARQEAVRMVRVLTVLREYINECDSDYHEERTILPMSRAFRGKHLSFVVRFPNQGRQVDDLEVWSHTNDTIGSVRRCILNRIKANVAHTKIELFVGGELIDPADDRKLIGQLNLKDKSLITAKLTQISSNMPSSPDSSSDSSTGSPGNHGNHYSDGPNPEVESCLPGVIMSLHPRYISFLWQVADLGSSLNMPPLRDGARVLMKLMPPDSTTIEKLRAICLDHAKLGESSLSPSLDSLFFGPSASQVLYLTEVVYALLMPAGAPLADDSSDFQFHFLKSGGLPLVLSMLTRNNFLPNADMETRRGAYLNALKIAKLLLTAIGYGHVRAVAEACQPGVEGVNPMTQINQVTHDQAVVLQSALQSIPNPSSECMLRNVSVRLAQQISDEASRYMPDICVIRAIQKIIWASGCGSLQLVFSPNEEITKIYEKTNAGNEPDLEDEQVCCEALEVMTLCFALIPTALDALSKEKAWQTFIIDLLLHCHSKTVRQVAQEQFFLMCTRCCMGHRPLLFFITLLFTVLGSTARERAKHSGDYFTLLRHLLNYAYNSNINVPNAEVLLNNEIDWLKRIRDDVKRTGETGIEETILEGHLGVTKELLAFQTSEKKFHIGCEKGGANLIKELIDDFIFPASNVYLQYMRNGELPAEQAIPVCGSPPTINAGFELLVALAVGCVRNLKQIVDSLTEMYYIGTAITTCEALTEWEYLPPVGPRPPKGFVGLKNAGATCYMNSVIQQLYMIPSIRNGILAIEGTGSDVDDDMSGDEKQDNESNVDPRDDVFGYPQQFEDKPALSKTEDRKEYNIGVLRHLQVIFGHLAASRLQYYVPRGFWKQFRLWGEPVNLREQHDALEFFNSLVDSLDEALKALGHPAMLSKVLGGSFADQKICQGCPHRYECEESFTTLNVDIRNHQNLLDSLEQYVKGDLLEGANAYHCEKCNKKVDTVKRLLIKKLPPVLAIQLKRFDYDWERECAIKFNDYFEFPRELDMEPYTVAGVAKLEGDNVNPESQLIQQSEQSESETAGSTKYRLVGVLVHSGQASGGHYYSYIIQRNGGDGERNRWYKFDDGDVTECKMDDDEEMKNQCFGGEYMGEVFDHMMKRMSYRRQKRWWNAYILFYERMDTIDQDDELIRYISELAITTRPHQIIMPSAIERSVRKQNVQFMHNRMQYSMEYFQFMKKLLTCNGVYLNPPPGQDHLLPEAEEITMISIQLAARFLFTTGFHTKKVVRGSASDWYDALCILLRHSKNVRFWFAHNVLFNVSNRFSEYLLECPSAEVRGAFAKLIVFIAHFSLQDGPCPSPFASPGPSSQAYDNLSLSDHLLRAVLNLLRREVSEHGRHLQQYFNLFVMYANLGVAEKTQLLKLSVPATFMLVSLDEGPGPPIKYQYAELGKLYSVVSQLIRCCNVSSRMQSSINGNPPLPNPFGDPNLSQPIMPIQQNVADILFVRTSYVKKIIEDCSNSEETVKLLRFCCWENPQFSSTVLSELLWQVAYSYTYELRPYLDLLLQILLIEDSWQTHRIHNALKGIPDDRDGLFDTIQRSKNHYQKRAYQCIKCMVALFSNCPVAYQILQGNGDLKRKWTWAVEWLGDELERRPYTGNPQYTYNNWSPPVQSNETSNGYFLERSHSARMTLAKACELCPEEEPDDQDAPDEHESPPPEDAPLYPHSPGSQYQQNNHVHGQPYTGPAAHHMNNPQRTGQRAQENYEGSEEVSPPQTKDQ

| SMILES | IC50 (USP9X […]) | IC50 (USP9X 0.025 nM) |
| --- | --- | --- |
| CN1CCC(Oc2cccc(C(O)c3cc4c(cn3)CN(S(=O)(=O)c3ccc(-c5ncco5)cc3)C4)c2)CC1 (single isomer, unassigned) [Example 79] | 1 to 100 nM |  |
| O=S(=O)(C1CCN(c2ncco2)CC1)N1Cc2cnc(C(O)c3ccccc3)cc2C1 (centres unmarked) [Example 32, (2-{[1-(1,3-oxazol-2-yl)piperidin-4-yl]sulfonyl}-1H,2H,3H-pyrrolo[3,4-c]pyridine-6-yl)(phenyl)methanol] |  | > 25000 nM |
| CN1CCC(Oc2cccc(C(O)c3cc4c(cn3)CN(S(=O)(=O)c3ccc(-c5ncco5)cc3)C4)c2)CC1 (single isomer, unassigned) [Example 78] |  | 1 to 100 nM |
| O=S(=O)(c1ccc(-n2ccnc2)cc1)N1Cc2cnc(C(O)c3ccccc3)cc2C1 (centres unmarked) [Example 19] |  | > 25000 nM |
| O=S(=O)(C1CCN(c2nccs2)CC1)N1Cc2cnc(C(O)c3ccccc3)cc2C1 (centres unmarked) [Example 24] |  | > 25000 nM |
